In this experiment the test system is subjects with vitiligo (depigmented areas on neck, trunk and extremities). In words: Efficacy and safety study in vitiligo, blinded investigator evaluation on a score of 0 to 7. The experiment is classed as in vivo. The conditions noted are these: share of the subjects in the group; after the 20 week topical treatment regimen was completed; nonfacial areas. The procedure:
An efficacy and safety study was conducted to compare the effects of bimatoprost monotherapy, mometasone monotherapy, and the combination of bimatoprost and mometasone. 18 randomized subjects completed the 20 week study, five coming in each of the bimatoprost monotherapy and mometasone monotherapy groups with the other eight coming in the bimatoprost/mometasone combination group. Subjects with vitiligo applied the corresponding drug(s) to depigmented areas on their neck, truck, and extremities. Per FDA request, facial areas where not treated during the study. For the bimatoprost monotherapy group, subjects were instructed to administer bimatoprost twice daily (morning and evening) for all 20 weeks. For the mometasone monotherapy group, subjects were instructed to administer mometasone once daily in the morning for weeks 1-12 and 17-20. Placebo (Cetaphil) was instructed to be administered in the morning for weeks 13-16 and in the evening for all 20 weeks. For the bimatoprost/mometasone combination group, subjects were instructed to administer mometasone once daily in the morning for weeks 1-12 and 17-20 and placebo was administered in the morning for weeks 13-16. Subjects were instructed to administer bimatoprost once daily evening for all 20 weeks. Subjects in either the bimatoprost monotherapy group or the bimatoprost/mometasone combination group the subjects were instructed to administer bimatoprost in the form of a 0.03 wt. % solution which was to be applied in a dose of 1 to 2 drops per 2 cm^2 body surface area. Subjects in either the mometasone monotherapy group or the bimatoprost/mometasone combination group the subjects were instructed to administer mometasone in the form of 0.1 wt. % mometasone furoate cream which was to be applied in a dose of 1 to 2 pea-sized quantities per anatomic area. The subjects were blind as to which group they were in and therefore which drug(s) they were administering. During the study period, the subjects were periodically evaluated by an investigator. The investigators evaluated the subjects on a score of 0 to 7 with 0 meaning that the subject's condition was worse, 1 being unchanged, 2 being slight improvement (approximately 10% improvement), 3 being mild improvement (approximately 10 to 25% improvement), 4 being moderate improvement (approximately 25 to 50% improvement), 5 being marked improvement (approximately 50 to 75% improvement), 6 being almost cleared (approximately 75 to 99% improvement), 7 being cleared (100% improvement). Like the subjects, the investigators were blind as to which group the subjects they were evaluating were in and therefore which drug(s) they were evaluating were administering.

With `C[C@@H]1C[C@H]2[C@@H]3CCC4=CC(=O)C=C[C@]4(C)[C@@]3(Cl)[C@@H](O)C[C@]2(C)[C@@]1(OC(=O)c1ccco1)C(=O)CCl` [mometasone, mometasone furoate], the “subjects with mild improvement (score 3, approximately 10 to 25% improvement)” value came to 40% and the “subjects with slight improvement (score 2, approximately 10% improvement)” value turned out to be 60%.
Turning to `CCNC(=O)CCC/C=C\C[C@@H]1[C@@H](/C=C/[C@@H](O)CCc2ccccc2)[C@H](O)C[C@@H]1O` [bimatoprost, Bimatoprost], the “subjects with mild improvement (score 3, approximately 10 to 25% improvement)” value amounted to 60% and the “subjects with moderate improvement (score 4, approximately 25 to 50% improvement)” value stood at 40%.

These data come from US20180200263A1, “TOPICAL TREATMENT REGIMENS CONTAINING A PROSTAGLANDIN F2a ANALOG AND A TOPICAL STEROID” (priority 2015, published 2018).
